Source: paper PMC10905675, “INX-315, a Selective CDK2 Inhibitor, Induces Cell Cycle Arrest and Senescence in Solid Tumors” (Cancer Discovery, 2023)

Key:
Assay in all cases: SelectScreen ZLYTE
Type in all cases: biochemical
Conditions in all cases: INX-0315 at 100nM
ABL1 E255K = biological target: T1, ABL1 E255K (Homo sapiens, UniProt P00519, E255K)
T1 construct: purchased Thermo Fisher Scientific SelectScreen (plus Nanosyn / Reaction Biology for CDK/cyclin lines)
Summary of the method: (§1)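 Screening in two stages: one concentration of inhibitor (100 nmol/L; 1% DMSO), then a ten-point series from 1 µmol/L to 0.0495 nmol/L. Conditions were those fixed in advance by the provider.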

ABL1 F317I = biological target: T2, ABL1 F317I (Homo sapiens, UniProt P00519, F317I)
T2 construct: purchased Thermo Fisher Scientific SelectScreen (plus Nanosyn / Reaction Biology for CDK/cyclin lines)
Summary of the method: as §1

ABL1 T315I = biological target: T3, ABL1 T315I (Homo sapiens, UniProt P00519, T315I)
T3 construct: purchased Thermo Fisher Scientific SelectScreen (plus Nanosyn / Reaction Biology for CDK/cyclin lines)
Summary of the method: as §1

ABL2 (Arg) = biological target: T4, ABL2 (Arg) (Homo sapiens, UniProt P42684)
T4 construct: purchased Thermo Fisher Scientific SelectScreen (plus Nanosyn / Reaction Biology for CDK/cyclin lines)
Summary of the method: as §1

ADRBK2 (GRK3) = biological target: T5, ADRBK2 (GRK3) (Homo sapiens, UniProt P35626)
T5 construct: purchased Thermo Fisher Scientific SelectScreen (plus Nanosyn / Reaction Biology for CDK/cyclin lines)
Summary of the method: as §1

ALK = biological target: T6, ALK (Homo sapiens, UniProt Q9UM73)
T6 construct: purchased Thermo Fisher Scientific SelectScreen (plus Nanosyn / Reaction Biology for CDK/cyclin lines)
Summary of the method: as §1

BRAF = biological target: T7, BRAF (Homo sapiens, UniProt P15056)
T7 construct: purchased Thermo Fisher Scientific SelectScreen (plus Nanosyn / Reaction Biology for CDK/cyclin lines)
Summary of the method: as §1

CAMK2D (CaMKII delta) = biological target: T8, CAMK2D (CaMKII delta) (Homo sapiens, UniProt Q13557)
T8 construct: purchased Thermo Fisher Scientific SelectScreen (plus Nanosyn / Reaction Biology for CDK/cyclin lines)
Summary of the method: as §1

CDKL5 = biological target: T9, CDKL5 (Homo sapiens, UniProt O76039)
T9 construct: purchased Thermo Fisher Scientific SelectScreen (plus Nanosyn / Reaction Biology for CDK/cyclin lines)
Summary of the method: as §1

CHEK2 (CHK2) = biological target: T10, CHEK2 (CHK2) (Homo sapiens, UniProt O96017)
T10 construct: purchased Thermo Fisher Scientific SelectScreen (plus Nanosyn / Reaction Biology for CDK/cyclin lines)
Summary of the method: as §1

CLK1 = biological target: T11, CLK1 (Homo sapiens, UniProt P49759)
T11 construct: purchased Thermo Fisher Scientific SelectScreen (plus Nanosyn / Reaction Biology for CDK/cyclin lines)
Summary of the method: as §1

CSK = biological target: T12, CSK (Homo sapiens, UniProt P41240)
T12 construct: purchased Thermo Fisher Scientific SelectScreen (plus Nanosyn / Reaction Biology for CDK/cyclin lines)
Summary of the method: as §1

CSNK1G2 (CK1 gamma 2) = biological target: T13, CSNK1G2 (CK1 gamma 2) (Homo sapiens, UniProt P78368)
T13 construct: purchased Thermo Fisher Scientific SelectScreen (plus Nanosyn / Reaction Biology for CDK/cyclin lines)
Summary of the method: as §1

CSNK2A1 (CK2 alpha 1) = biological target: T14, CSNK2A1 (CK2 alpha 1) (Homo sapiens, UniProt P68400)
T14 construct: purchased Thermo Fisher Scientific SelectScreen (plus Nanosyn / Reaction Biology for CDK/cyclin lines)
Summary of the method: as §1

DNA-PK = biological target: T15, DNA-PK (Homo sapiens, UniProt P78527)
T15 construct: purchased Thermo Fisher Scientific SelectScreen (plus Nanosyn / Reaction Biology for CDK/cyclin lines)
Summary of the method: as §1

DYRK1B = biological target: T16, DYRK1B (Homo sapiens, UniProt Q9Y463)
T16 construct: purchased Thermo Fisher Scientific SelectScreen (plus Nanosyn / Reaction Biology for CDK/cyclin lines)
Summary of the method: as §1

EGFR (ErbB1) G719C = biological target: T17, EGFR (ErbB1) G719C (Homo sapiens, UniProt P00533, G719C)
T17 construct: purchased Thermo Fisher Scientific SelectScreen (plus Nanosyn / Reaction Biology for CDK/cyclin lines)
Summary of the method: as §1

EGFR (ErbB1) L858R = biological target: T18, EGFR (ErbB1) L858R (Homo sapiens, UniProt P00533, L858R)
T18 construct: purchased Thermo Fisher Scientific SelectScreen (plus Nanosyn / Reaction Biology for CDK/cyclin lines)
Summary of the method: as §1

EPHB3 = biological target: T19, EPHB3 (Homo sapiens, UniProt P54753)
T19 construct: purchased Thermo Fisher Scientific SelectScreen (plus Nanosyn / Reaction Biology for CDK/cyclin lines)
Summary of the method: as §1

FGFR3 V555M = biological target: T20, FGFR3 V555M (Homo sapiens, UniProt P22607, V555M)
T20 construct: purchased Thermo Fisher Scientific SelectScreen (plus Nanosyn / Reaction Biology for CDK/cyclin lines)
Summary of the method: as §1

FRK (PTK5) = biological target: T21, FRK (PTK5) (Homo sapiens, UniProt P42685)
T21 construct: purchased Thermo Fisher Scientific SelectScreen (plus Nanosyn / Reaction Biology for CDK/cyclin lines)
Summary of the method: as §1

HIPK2 = biological target: T22, HIPK2 (Homo sapiens, UniProt Q9H2X6)
T22 construct: purchased Thermo Fisher Scientific SelectScreen (plus Nanosyn / Reaction Biology for CDK/cyclin lines)
Summary of the method: as §1

MAPK11 (p38 beta) = biological target: T23, MAPK11 (p38 beta) (Homo sapiens, UniProt Q15759)
T23 construct: purchased Thermo Fisher Scientific SelectScreen (plus Nanosyn / Reaction Biology for CDK/cyclin lines)
Summary of the method: as §1

MAPKAPK2 = biological target: T24, MAPKAPK2 (Homo sapiens, UniProt P49137)
T24 construct: purchased Thermo Fisher Scientific SelectScreen (plus Nanosyn / Reaction Biology for CDK/cyclin lines)
Summary of the method: as §1

MELK = biological target: T25, MELK (Homo sapiens, UniProt Q14680)
T25 construct: purchased Thermo Fisher Scientific SelectScreen (plus Nanosyn / Reaction Biology for CDK/cyclin lines)
Summary of the method: as §1

MST4 = biological target: T26, MST4 (Homo sapiens, UniProt Q9P289)
T26 construct: purchased Thermo Fisher Scientific SelectScreen (plus Nanosyn / Reaction Biology for CDK/cyclin lines)
Summary of the method: as §1

PDGFRA (PDGFR alpha) = biological target: T27, PDGFRA (PDGFR alpha) (Homo sapiens, UniProt P16234)
T27 construct: purchased Thermo Fisher Scientific SelectScreen (plus Nanosyn / Reaction Biology for CDK/cyclin lines)
Summary of the method: as §1

PHKG2 = biological target: T28, PHKG2 (Homo sapiens, UniProt P15735)
T28 construct: purchased Thermo Fisher Scientific SelectScreen (plus Nanosyn / Reaction Biology for CDK/cyclin lines)
Summary of the method: as §1

PIM2 = biological target: T29, PIM2 (Homo sapiens, UniProt Q9P1W9)
T29 construct: purchased Thermo Fisher Scientific SelectScreen (plus Nanosyn / Reaction Biology for CDK/cyclin lines)
Summary of the method: as §1

PRKACA (PKA) = biological target: T30, PRKACA (PKA) (Homo sapiens, UniProt P17612)
T30 construct: purchased Thermo Fisher Scientific SelectScreen (plus Nanosyn / Reaction Biology for CDK/cyclin lines)
Summary of the method: as §1

PRKCG (PKC gamma) = biological target: T31, PRKCG (PKC gamma) (Homo sapiens, UniProt P05129)
T31 construct: purchased Thermo Fisher Scientific SelectScreen (plus Nanosyn / Reaction Biology for CDK/cyclin lines)
Summary of the method: as §1

RET V804L = biological target: T32, RET V804L (Homo sapiens, UniProt P07949, V804L)
T32 construct: purchased Thermo Fisher Scientific SelectScreen (plus Nanosyn / Reaction Biology for CDK/cyclin lines)
Summary of the method: as §1

RPS6KA4 (MSK2) = biological target: T33, RPS6KA4 (MSK2) (Homo sapiens, UniProt O75676)
T33 construct: purchased Thermo Fisher Scientific SelectScreen (plus Nanosyn / Reaction Biology for CDK/cyclin lines)
Summary of the method: as §1

RPS6KA5 (MSK1) = biological target: T34, RPS6KA5 (MSK1) (Homo sapiens, UniProt O75582)
T34 construct: purchased Thermo Fisher Scientific SelectScreen (plus Nanosyn / Reaction Biology for CDK/cyclin lines)
Summary of the method: as §1

SNF1LK2 = biological target: T35, SNF1LK2 (Homo sapiens, UniProt Q9H0K1)
T35 construct: purchased Thermo Fisher Scientific SelectScreen (plus Nanosyn / Reaction Biology for CDK/cyclin lines)
Summary of the method: as §1

TBK1 = biological target: T36, TBK1 (Homo sapiens, UniProt Q9UHD2)
T36 construct: purchased Thermo Fisher Scientific SelectScreen (plus Nanosyn / Reaction Biology for CDK/cyclin lines)
Summary of the method: as §1

TEK (TIE2) Y897S = biological target: T37, TEK (TIE2) Y897S (Homo sapiens, UniProt Q02763, Y897S)
T37 construct: purchased Thermo Fisher Scientific SelectScreen (plus Nanosyn / Reaction Biology for CDK/cyclin lines)
Summary of the method: as §1

T16 sequence (Q9Y463 whole entry): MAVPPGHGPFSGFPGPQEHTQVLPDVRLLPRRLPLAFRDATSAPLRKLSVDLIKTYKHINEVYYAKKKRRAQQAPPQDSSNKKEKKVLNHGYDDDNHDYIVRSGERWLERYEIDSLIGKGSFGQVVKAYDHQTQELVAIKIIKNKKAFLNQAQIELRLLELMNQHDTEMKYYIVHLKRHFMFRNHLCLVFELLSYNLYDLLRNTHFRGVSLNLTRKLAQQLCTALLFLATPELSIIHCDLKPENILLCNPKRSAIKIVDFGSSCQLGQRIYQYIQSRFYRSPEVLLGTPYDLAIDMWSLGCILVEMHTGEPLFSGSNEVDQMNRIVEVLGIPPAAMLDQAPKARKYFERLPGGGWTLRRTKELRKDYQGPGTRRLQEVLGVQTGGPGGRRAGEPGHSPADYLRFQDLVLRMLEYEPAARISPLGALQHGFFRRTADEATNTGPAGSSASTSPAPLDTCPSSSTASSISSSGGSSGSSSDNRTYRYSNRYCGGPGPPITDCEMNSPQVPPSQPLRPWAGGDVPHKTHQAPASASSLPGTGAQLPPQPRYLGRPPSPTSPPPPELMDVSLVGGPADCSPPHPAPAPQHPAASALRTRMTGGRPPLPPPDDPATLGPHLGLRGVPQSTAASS
T33 sequence (O75676 whole entry): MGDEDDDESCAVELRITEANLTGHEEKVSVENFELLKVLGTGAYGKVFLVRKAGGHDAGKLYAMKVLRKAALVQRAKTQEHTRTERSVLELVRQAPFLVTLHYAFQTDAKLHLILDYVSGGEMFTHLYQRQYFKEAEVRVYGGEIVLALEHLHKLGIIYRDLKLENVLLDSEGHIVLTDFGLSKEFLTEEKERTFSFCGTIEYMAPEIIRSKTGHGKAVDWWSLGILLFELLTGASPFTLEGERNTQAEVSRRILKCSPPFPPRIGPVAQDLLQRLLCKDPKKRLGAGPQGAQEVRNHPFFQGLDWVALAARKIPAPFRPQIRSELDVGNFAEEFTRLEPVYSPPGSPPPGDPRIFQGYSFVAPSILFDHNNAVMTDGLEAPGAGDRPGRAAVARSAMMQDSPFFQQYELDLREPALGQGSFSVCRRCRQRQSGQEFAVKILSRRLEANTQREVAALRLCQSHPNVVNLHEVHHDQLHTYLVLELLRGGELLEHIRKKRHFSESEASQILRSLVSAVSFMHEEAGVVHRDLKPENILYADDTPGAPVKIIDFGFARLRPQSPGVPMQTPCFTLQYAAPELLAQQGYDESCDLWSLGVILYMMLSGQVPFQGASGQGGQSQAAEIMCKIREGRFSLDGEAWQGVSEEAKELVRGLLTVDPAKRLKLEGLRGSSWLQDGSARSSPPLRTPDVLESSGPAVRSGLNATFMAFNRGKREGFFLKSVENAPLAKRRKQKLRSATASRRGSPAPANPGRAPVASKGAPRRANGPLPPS
T23 sequence (Q15759 whole entry): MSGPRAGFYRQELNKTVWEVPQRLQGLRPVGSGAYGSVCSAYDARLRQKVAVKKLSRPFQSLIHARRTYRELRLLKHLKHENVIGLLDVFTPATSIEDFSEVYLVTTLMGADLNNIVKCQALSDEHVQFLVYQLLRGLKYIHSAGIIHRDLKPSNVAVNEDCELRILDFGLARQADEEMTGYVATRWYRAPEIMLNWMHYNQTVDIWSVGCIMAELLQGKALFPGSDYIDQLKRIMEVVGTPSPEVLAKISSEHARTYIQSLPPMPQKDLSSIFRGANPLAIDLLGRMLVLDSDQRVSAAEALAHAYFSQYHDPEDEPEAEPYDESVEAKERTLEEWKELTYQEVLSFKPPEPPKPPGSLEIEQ
T24 sequence (P49137 whole entry): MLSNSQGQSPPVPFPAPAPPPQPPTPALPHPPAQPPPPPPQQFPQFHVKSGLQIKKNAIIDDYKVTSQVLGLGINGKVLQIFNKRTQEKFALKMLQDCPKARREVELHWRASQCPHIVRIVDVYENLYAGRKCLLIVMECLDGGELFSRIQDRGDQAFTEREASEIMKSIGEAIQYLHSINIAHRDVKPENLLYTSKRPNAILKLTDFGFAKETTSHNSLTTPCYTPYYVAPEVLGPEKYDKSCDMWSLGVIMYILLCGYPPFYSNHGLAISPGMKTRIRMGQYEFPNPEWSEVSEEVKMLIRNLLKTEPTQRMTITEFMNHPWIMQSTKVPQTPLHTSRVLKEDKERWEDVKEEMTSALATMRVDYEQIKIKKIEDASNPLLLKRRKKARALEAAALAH
T37 sequence (Q02763 23-1124 Y897S): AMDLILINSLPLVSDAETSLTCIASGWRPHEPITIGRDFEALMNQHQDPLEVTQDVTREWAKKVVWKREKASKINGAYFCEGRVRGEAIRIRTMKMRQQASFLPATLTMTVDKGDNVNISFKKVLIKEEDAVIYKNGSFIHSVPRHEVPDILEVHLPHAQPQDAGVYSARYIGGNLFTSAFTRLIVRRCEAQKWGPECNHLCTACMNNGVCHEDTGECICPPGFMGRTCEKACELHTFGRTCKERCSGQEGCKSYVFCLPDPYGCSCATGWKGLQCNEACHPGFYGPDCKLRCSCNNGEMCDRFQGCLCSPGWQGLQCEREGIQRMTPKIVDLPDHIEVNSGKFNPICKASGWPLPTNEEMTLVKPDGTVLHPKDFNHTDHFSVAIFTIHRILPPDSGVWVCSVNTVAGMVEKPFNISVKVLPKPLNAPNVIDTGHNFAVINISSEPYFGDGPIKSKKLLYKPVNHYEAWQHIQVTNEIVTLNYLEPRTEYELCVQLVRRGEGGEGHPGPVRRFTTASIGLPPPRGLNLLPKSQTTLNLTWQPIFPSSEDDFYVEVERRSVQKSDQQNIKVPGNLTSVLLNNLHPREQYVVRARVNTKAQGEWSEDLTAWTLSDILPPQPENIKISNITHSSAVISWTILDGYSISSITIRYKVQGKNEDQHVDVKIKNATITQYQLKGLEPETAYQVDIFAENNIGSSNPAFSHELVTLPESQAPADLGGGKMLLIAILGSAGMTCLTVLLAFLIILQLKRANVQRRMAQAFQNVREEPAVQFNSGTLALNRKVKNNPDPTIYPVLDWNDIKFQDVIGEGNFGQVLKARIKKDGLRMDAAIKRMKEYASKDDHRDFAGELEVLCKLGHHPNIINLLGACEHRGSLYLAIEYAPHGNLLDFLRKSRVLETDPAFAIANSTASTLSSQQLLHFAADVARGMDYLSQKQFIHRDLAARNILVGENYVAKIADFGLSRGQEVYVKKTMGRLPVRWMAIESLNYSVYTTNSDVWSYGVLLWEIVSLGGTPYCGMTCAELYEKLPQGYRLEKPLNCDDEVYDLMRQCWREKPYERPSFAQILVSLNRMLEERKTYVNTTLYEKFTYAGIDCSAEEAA
T29 sequence (Q9P1W9 whole entry): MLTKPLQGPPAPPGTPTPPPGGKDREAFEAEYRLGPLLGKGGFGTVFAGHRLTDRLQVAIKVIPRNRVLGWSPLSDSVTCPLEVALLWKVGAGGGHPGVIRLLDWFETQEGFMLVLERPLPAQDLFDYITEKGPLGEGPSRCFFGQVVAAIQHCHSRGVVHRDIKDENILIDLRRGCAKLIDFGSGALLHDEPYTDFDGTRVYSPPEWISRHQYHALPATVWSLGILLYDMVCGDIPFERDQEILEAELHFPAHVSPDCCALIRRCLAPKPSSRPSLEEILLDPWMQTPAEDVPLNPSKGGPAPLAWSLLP
T28 sequence (P15735 whole entry): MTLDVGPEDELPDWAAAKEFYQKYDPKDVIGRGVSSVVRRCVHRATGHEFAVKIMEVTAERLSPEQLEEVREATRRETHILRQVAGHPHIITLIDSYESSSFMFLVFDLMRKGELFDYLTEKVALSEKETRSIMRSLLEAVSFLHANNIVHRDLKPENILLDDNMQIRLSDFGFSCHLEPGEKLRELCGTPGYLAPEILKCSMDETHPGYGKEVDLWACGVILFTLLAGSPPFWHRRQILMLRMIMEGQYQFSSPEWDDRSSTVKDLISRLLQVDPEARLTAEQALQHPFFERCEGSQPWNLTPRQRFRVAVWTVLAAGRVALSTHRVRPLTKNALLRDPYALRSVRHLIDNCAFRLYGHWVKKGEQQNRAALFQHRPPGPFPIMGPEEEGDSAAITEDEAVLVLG

SMILES: NS(=O)(=O)c1ccc(Nc2ncc3cc4n(c3n2)C2(CCCCC2)C(=O)NN4)cc1 [INX-315]
- inhibition at 0.1 µM (ABL1 E255K): 11%
- inhibition at 0.1 µM (ABL1 F317I): 8%
- inhibition at 0.1 µM (ABL1 T315I): 10%
- inhibition at 0.1 µM (ABL2 (Arg)): 14%
- inhibition at 0.1 µM (ADRBK2 (GRK3)): 1%
- inhibition at 0.1 µM (ALK): 16%
- inhibition at 0.1 µM (BRAF): 11%
- inhibition at 0.1 µM (CAMK2D (CaMKII delta)): 1%
- inhibition at 0.1 µM (CDKL5): -1%
- inhibition at 0.1 µM (CHEK2 (CHK2)): 7%
- inhibition at 0.1 µM (CLK1): 5%
- inhibition at 0.1 µM (CSK): 1%
- inhibition at 0.1 µM (CSNK1G2 (CK1 gamma 2)): 3%
- inhibition at 0.1 µM (CSNK2A1 (CK2 alpha 1)): 6%
- inhibition at 0.1 µM (DNA-PK): 6%
- inhibition at 0.1 µM (DYRK1B): 1%
- inhibition at 0.1 µM (EGFR (ErbB1) G719C): 0%
- inhibition at 0.1 µM (EGFR (ErbB1) L858R): 1%
- inhibition at 0.1 µM (EPHB3): 3%
- inhibition at 0.1 µM (FGFR3 V555M): 21%
- inhibition at 0.1 µM (FRK (PTK5)): 7%
- inhibition at 0.1 µM (HIPK2): 5%
- inhibition at 0.1 µM (MAPK11 (p38 beta)): 7%
- inhibition at 0.1 µM (MAPKAPK2): 3%
- inhibition at 0.1 µM (MELK): 10%
- inhibition at 0.1 µM (MST4): -4%
- inhibition at 0.1 µM (PDGFRA (PDGFR alpha)): 21%
- inhibition at 0.1 µM (PHKG2): 2%
- inhibition at 0.1 µM (PIM2): 5%
- inhibition at 0.1 µM (PRKACA (PKA)): 4%
- inhibition at 0.1 µM (PRKCG (PKC gamma)): 7%
- inhibition at 0.1 µM (RET V804L): 35%
- inhibition at 0.1 µM (RPS6KA4 (MSK2)): 4%
- inhibition at 0.1 µM (RPS6KA5 (MSK1)): 8%
- inhibition at 0.1 µM (SNF1LK2): 18%
- inhibition at 0.1 µM (TBK1): 5%
- inhibition at 0.1 µM (TEK (TIE2) Y897S): 6%
